Measurements from patent US20240389585A1, “METHOD FOR PROMOTING PLANT GROWTH” (priority 2021, published 2024).

Key:
Complex soil microbiome = test: Crystal violet biofilm biomass, MeJA chemical analogs; format: cell-based; details: 20 hrs
Experimental: Complex soil microbiome was treated with various MeJA chemical analogs over 20 hrs and stained with CV. The full chemical name of the chemical analogs are as follows: DHJ: Dihydro jasmonic acid; MDHJ: Methyl dihydro jasmonate; MJ: Methyl jasmonate; MO: Methyl octanoate.
This method was used to get a proxy for biofilm biomass. Briefly, planktonic cells were discarded. 50 μL of 0.1% CV solution was added to the well very gently. The biofilm was stained for 10 minutes. The dye was removed gently. 100 μL of PBS was added to the well to wash off the excess CV. PBS was removed, and the wells were left to dry overnight. The next day, 200 ul of 1% SDS was added to each well and was resuspended vigorously with a pipette. After 20 minutes, 20 ul from the top suspension was removed and added to a new 96-well plate. The well was diluted with 180 ul of water and absorbance was checked at 595 nm on a spectrophotometer.
To identify the potential functional group of MeJA for its biofilm-inducing property, several jasmonic acid analogues were screened for their biofilm-inducing capability in the soil microbiome. The analogues were used to study biofilm induction in both complex soil microbiomes (FIG. 8).

[1] = tested on: soil microbiota biofilm community; test: 16S rRNA gene amplicon quantitative microbiome profiling of VOC-exposed biofilm communities; details: 16 and 24 hours
Experimental: Using the push-pull airflow system, soil microbiota inoculum was exposed to four VOC treatments 1) soil VOCs; 2) WT Arabidopis rVOCs; 3) jmt Arabidopsis rVOCs; 4) jmt Arabidopsis rVOCs+MeJA. Biofilm and planktonic parts of the samples were collected from 28 wells after 16 and 24 hours and stored at −80° C. The collective sample from 28 wells was treated as a single experimental replicate. The whole experiment was repeated eight times.
Biofilm was scraped at specific timepoints and resuspended in PBS solution. DNA-RNA shield was added in 1:1 proportion and samples were stored at −80 C. Zymobiomics DNA miniprep kit was used to isolate DNA from the samples based on their protocol. 16S V4-V5 region was amplified using 515F-Y and 927R primers (Walters et al., mSystems 1 (2016)). 20 µL of reaction contained 2 μL of 10×DreamTaq buffer, 2 μL of 2 mM dNTP mix, 0.5 μL of each primer (10 µM), 0.5 μL of DreamTaq polymerase (5U/μL), 10 ng of template DNA, and molecular grade water to make up the volume. PCR conditions were as follows: initial denaturation at 95° C. for 3 minutes, 35 cycles of denaturation at 95° C. for 45 s, annealing at 50° C. for 45 s, extension at 68° C. for 90 s and final extension at 68° C. for 5 minutes. PCR products were purified with a Genejet PCR purification kit. Amplicon concentration was measured using Qubit DNA BR Kit and Qubit fluorometer. 16S amplicons were submitted for next-gen sequencing on Illumina MiSeq V3 Run (300 base pairs paired-end) at Singapore Centre for Life Science Engineering (SCELSE). Rarefaction analysis was performed to calculate appropriate depth for sequencing (FIG. 17B).
To enumerate the 16S rRNA gene copy numbers, the primer pair 515F and 806R (Walters, W. et al., MSystems 1, (2016)) were used in qPCR to amplify the 16S gene using Applied Biosystem real-time PCR system. The PCR assay mixture consists of 10 ul of PowerUp™ SYBR™ Green Master Mix, 1 ul of each primer from 10 µM stock, 1 ul of DNA of extracted DNA from the microbial population, and 7 ul of sterile nuclease-free water. The PCR amplification program encompassed an initial denaturation step at 95° C. for 3 min followed by 40 three-step cycles at 95° C. for 30 s, at 52° C. for 30 s and 72° C. for 30 s. Plasmid with the fragments of 16S rRNA gene part amplified with same primer pair was taken as standard for creating standard curve with known copy number for absolute quantification. Pearson correlation was calculated for the qPCR-derived copy number and the DNA yield from all the samples (FIG. 17D).
Raw and demultiplexed sequencing data was analysed as follows (also described in a flowchart in FIG. 17A): Primer and adapter sequences were removed using cutadapt (Martin, M., EMBnet.journal 17, 10-12 (2011)). […]

soil microbiome = test: Biofilm induction by liquid MeJA concentration range; format: cell-based; details: pure liquid MeJA
Experimental: Biofilm induction of the soil microbiome was tested with several concentrations of pure MeJA at the nanomolar level. It was confirmed that a concentration range from […] of MeJA was effective to induce biofilms without being detrimental to plant growth.

soil microbiota [2] = test: Crystal violet biofilm biomass in push-pull dynamic system; format: cell-based; details: 5, 25 and 50 μmol MeJA spiked in soil chamber
Experimental: (§1) 5 g of JIFFY soil substrate was resuspended in 20 ml of PBS. This suspension was vortexed for 4 minutes and sonicated for 1 minute. It was then filtered through a strainer. The slurry that didn't pass through the strainer was again resuspended in 20 ml of PBS medium and subsequent steps were repeated twice. The filtrate was then centrifuged at 150G for 2 minutes to settle large soil particles and the supernatant was decanted into another tube. This supernatant was then centrifuged at 5500G for 5 minutes to obtain a bacterial pellet. This pellet was resuspended in 20 ml of soil extract medium. This suspension was referred to as “soil microbiota inoculum”. The final concentration in all inocula was around 1×10^8 bacteria per ml as quantified by Baclight bacterial counting kit (flow cytometry) or manual counting with a hemocytometer.
This system consists of an aerator/pump (to push air), 5 μm charcoal filter (to adsorb gaseous impurities), 0.22 μm filter (to trap microbial contamination), gas wash bottle (to moisturize the air), a source chamber (to host the source of volatiles), recipient chamber (to receive volatiles) and vacuum pump (to pull the air out) (FIG. 1D). […]
This method was used to get a proxy for biofilm biomass. […] The well was diluted with 180 ul of water and absorbance was checked at 595 nm on a spectrophotometer.

soil microbiota [3] = test: Live confocal imaging of soil microbiota biofilm formation (SYTO9 nucleic acid stain, 3D biovolume); format: cell-based
Experimental: as §1
(§2) For the confocal imaging experiments, soil inoculum was enriched in soil extract media overnight at 37° C.
(§3) Soil microbiota inoculum was prepared as described in the section above. MeJA was added to the microbiota to achieve the desired concentration (0, 1, 5, 25 nM for nucleic acid imaging experiment, and 0 and 5 nM for matrix imaging experiment). […] 50 µL of SYTO™9 (Thermo cat. no. S34854) solution (final concentration of 5 μM) was also added to all the wells. For matrix imaging, FilmTracer™ SYPRO™ Ruby Biofilm Matrix Stain (Thermo, cat. no. F10318) was added instead (ready to use, 1×concentration). For live imaging, Zeiss LSM 900 with Airyscan (Definite Focus 2) was used and images were acquired every 30 minutes for 24 hours with 65×oil objective at the NUS Centre for Bioimaging Science (CBIS). For both the dyes (separate experiments), a 488 nm laser was used.
(§4) Image analysis was performed using BiofilmQ software ([…]). Images were aligned along the Z-axis and along time. 2-class Otsu thresholding was used to detect the signal against the background. Sensitivity was set based on thresholding feedback. The rest of the settings were kept at default. Biofilm-related global properties were calculated and exported. We mainly focused on the 3D biovolume of our samples. Linear mixed-effects were used to model the biovolume where time, treatment, and their interaction were the fixed effects, and every sample was considered a random effect (Table 1 and Table 2). Following packages from R were used: nlme (Pinheiro, J. et al., R package version 3.1-153 (2021)), ggplot2 (Wickham, H., Wiley Interdiscip. Rev. Comput. Stat. 3, 180-185 (2011)).

[4] = tested on: microbial isolates from MeJA-induced complex biofilms; test: Biofilm assay of monoculture strains isolated from MeJA-induced biofilms; format: cell-based; details: 5 nM MeJA, crystal violet after 24 hours
Experimental: Complex microbiota biofilm exposed to volatile MeJA was scraped off and resuspended in PBS. Through serial dilution, this inoculum was plated on soil extract agar, minimal media agar, and LB agar. Colonies with unique morphology were picked and streaked onto a fresh LB plate to acquire single colonies. The isolated strains were identified using Sanger sequencing of the PCR product with primers 27F and […]. Their biofilm response to volatile MeJA was tested using “push-pull” setup (as described above for complex biofilms). Their response to soluble MeJA was tested by directly adding MeJA to the monoculture inoculum (final concentration of 5 nM). For both assays, biofilms were stained with crystal violet and quantified after 24 hours as explained in the biofilm staining protocol. The initial OD of the inoculum was 0.2.

[5] = tested on: soil microbiota biofilms (extracellular matrix proteins); test: Live confocal imaging of biofilm matrix formation (SYPRO Ruby, 3D biovolume); format: cell-based
Experimental: as §1, §2, §3, §4

[6] = 5 nM MeJA, time-treatment interaction

CC/C=C\CC1=C(C)CCC1=O [Cis-jasmone, cis-jasmone] was tested, and the “potential for biofilm induction among jasmonic acid analogues” value (Complex soil microbiome) was “highest potential for biofilm induction”.

For CCCCCC1C(=O)CCC1CC(=O)O (stereo not shown) [DHJ, Dihydro jasmonic acid], the “potential for biofilm induction among jasmonic acid analogues” value (Complex soil microbiome) was “highest potential for biofilm induction”.

With CC/C=C\CC1C(=O)CCC1CC(=O)OC (stereo not shown) [MeJA, Methyl jasmonate] the “share of biofilm community with significant shift in abundance” value ([1]; WT rVOCs vs soil VOCs, MeJA: jmt+MeJA vs jmt rVOCs) was roughly 10%, the “number of promoted ASVs” value ([1]; vs respective control) was 21 ASVs and the “number of repressed ASVs” value ([1]; vs respective control) was 82 ASVs. For the same molecule, the “number of responding ASVs” value ([1]; vs respective control) was 103 ASVs, the “concentration effective to induce biofilms without being detrimental to plant growth” value (soil microbiome) was no less than 500 nM and the “potency in biofilm promotion, volatile form” value (soil microbiota [2]) was “higher at low concentrations (5 μmol) and gradually declined in a dose-dependent manner”. The “Linear mixed-effects model Value, Treatment1 nM (Biovolume)” value (soil microbiota [3]; 1 nM MeJA, SYTO9, imaging over 24 hours) was −988.35, the “Linear mixed-effects model Value, Hours: Treatment1 nM (Biovolume)” value (soil microbiota [3]; 1 nM MeJA, time-treatment interaction) was 106.209 and the “time from which biovolumes differed” value (soil microbiota [3]; 5 nM MeJA) was no less than 15 h. For the same molecule, the “interaction of time and treatment in mixed-effects model” value (soil microbiota [3]; 5 nM MeJA vs non-treated biofilms) was “statistically significant”, the “biofilm growth trajectory (biovolume)” value (soil microbiota [3]; 5 nM MeJA, 0 to 24 hours, vs control) was “increasingly higher biofilm growth trajectory compared to the control” and the “Linear mixed-effects model Value, Treatment5 nM (Biovolume)” value (soil microbiota [3]; 5 nM MeJA, SYTO9, imaging over 24 hours) was −453.513. The “Linear mixed-effects model Value, Hours: Treatment5 nM (Biovolume)” value (soil microbiota [3]; [6]) was 102.9409, the “Linear mixed-effects model Value, Treatment25 nM (Biovolume)” value (soil microbiota [3]; 25 nM MeJA, SYTO9, imaging over 24 hours) was −1245.62 and the “Linear mixed-effects model Value, Hours: Treatment25 nM (Biovolume)” value (soil microbiota [3]; 25 nM MeJA, time-treatment interaction) was 90.7811. The “strains MeJA-responsive in biofilm formation, of nine tested” value [4] was “six”, the “time from which MeJA influence appeared in the matrix” value ([5]; 5 nM MeJA) was no less than 7 h and the “effect on biofilm matrix” value ([5]; 5 nM MeJA vs non-treated biofilm) was “promoted biofilm matrix compared to non-treated biofilm”. For the same molecule, the “Linear mixed-effects model Value, Treatment5 (matrix Biovolume)” value ([5]; 5 nM MeJA, SYPRO Ruby) was 294.3537 and the “Linear mixed-effects model Value, Hours: Treatment5 (matrix Biovolume)” value [5, 6] was 11.25.
